Test results as given in patent EP0435693B1, “Pharmaceutical compositions containing 3-oxygermylpropionic acid polymers for inhibiting the degeneration of cells” (SANWA KAGAKU KENKYUSHO CO., LTD., priority 1989, dated 1991).
Read-outs that look alike come from different tables or passages of the source.

Test system: SD masculine rats with hypohepatia
Type: in vivo
Conditions: hepatoxic drug alone after carbon tetrachloride
Protocol: Carbon tetrachloride was administered orally as a hepatoxic substance to SD masculine rats (weighing 500 g ± 50 g; age, 10 months) with hypohepatia (3 groups containing 8-9 rats each) at a dose of 0.5 g/kg, whereby their serum GOT was increased to more than 50 Karmen units after 24 hours. At the same time, 2 mg/kg of indomethacin as a hepatoxic drug (a lenitive), 5 mg/kg of 5-FU as a hepatoxic carcinostatic and 10 mg/kg of tetracycline as a hepatoxic antibiotic were administered orally to each of the animals five times every fourth day.
An additional 20 mg/kg of the composition of Preparation Ex. 1 was administered orally to the medicated group.
Seven days after the completion of medication, the animals were slaughtered to remove the livers, which were then visually observed. Afterwards, the tissue slices were observed under an optical microscope to examine the degree of heteroplasia of the liver cells.
The GOT eluates due to cytoclasis were determined by gathering blood from the tail vein of each animal 24 hours after the administration of carbon tetrachloride, two and ten days after the initiation of medication and on the final date of experimentation.

O=c1[nH]cc(F)c(=O)[nH]1 [5-FU, 5-fluorouracil]
mortality: some animals died

COc1ccc2c(c1)c(CC(=O)O)c(C)n2C(=O)c1ccc(Cl)cc1 [Indomethacin]
mortality: some animals died
serum GOT (2 days after the initiation of medication): 81.3±4.21 Karmen units/ml
serum GOT (10 days): 91.8±8.35 Karmen units/ml
serum GOT (Final Date): 99.4±1.43 Karmen units/ml
